Test results: publication PMC9917249, “Zinc Inhibits the GABAAR/ATPase during Postnatal Rat Development: The Role of Cysteine Residue” (International Journal of Molecular Sciences, 2023)

Biological target: T1, homomeric GABAAR β3 (Rattus norvegicus, UniProt P63079)
T1 construct: gene Gabrb3
Experiment: BCECF fluorescence, GABA-mediated HCO3- efflux
Assay type: cell-based
Conditions: 25 mM HCO3-; pH 7.4

T1 sequence (P63079 26-473): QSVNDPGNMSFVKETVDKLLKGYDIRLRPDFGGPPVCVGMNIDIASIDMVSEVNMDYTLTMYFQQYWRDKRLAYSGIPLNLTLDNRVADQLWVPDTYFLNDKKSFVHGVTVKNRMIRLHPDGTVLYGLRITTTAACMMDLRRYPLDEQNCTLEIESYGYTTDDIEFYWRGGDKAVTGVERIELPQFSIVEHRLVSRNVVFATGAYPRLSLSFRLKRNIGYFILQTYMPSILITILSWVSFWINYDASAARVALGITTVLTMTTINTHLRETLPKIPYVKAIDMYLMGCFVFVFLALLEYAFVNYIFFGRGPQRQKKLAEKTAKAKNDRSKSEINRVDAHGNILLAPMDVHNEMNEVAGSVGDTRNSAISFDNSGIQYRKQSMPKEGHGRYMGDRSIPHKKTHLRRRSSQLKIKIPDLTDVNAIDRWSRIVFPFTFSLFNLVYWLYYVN

With `NCCCC(=O)O` [GABA] the “maximum peak fluorescence change at 100 μM GABA” value was 14.0 ± 1.3%.
